Experiments:
[1] = biological target: T1, Mdm2/p53 binding (GST-Mdm2 / His-p53) (Homo sapiens, UniProt Q00987, L33E); experiment: Mdm2/p53 binding assay (HTRF, His-p53 and GST-Mdm2); settings: His-p53 (aa 1-132) and GST-Mdm2 (aa 25-108, L33E) 6.25 nM each; 25°C, 1 hour; values given as ranges
T1 construct: Mdm2 partial protein having Mdm2 amino acids at positions 25 to 108
In short: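 His-p53 (aa 1–132) and GST-Mdm2 (aa 25–108, L33E) were prepared at 6.25 nM each in the protein dilution (20 mM HEPES pH 7.4, 150 mM NaCl, 0.1% BSA). Compound in 10% DMSO buffer and XL665 anti-His/Eu anti-GST antibodies (KF buffer) were added, with 1 h at 25 °C. The 665/620 nm TR-FRET ratio gave T/C and a sigmoid-fitted IC50.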

[2] = tested on: human lung cancer-derived cell line NCI-H460 having wild-type p53; experiment: Cell growth inhibition assay (MTT); format: cell-based; settings: 72 h, NCI-H460 cells, 3 days culture, values given as ranges, read-out: 50% growth inhibition concentration (GI50 value)
In short: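 NCI-H460 cells (wild-type p53) seeded at 500 cells/well in RPMI1640 with 10% FBS, then treated the next day and grown 3 days at 37 °C. MTT read-out at OD 540 nm (660 nm reference), taken at dosing and at day 3. GI50 derived from T/C (%) dose-response curves.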

T1 sequence (Q00987 25-108 L33E): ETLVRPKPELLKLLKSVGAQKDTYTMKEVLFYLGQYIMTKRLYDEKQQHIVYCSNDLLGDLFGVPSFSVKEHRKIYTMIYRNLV

SMILES	IC50 [1]	GI50 [2]
CC1(C)CCC2(CC1)N[C@@H](C(=O)N[C@H]1C[C@H](C(C)(C)O)C1)[C@H](c1ccnc(Cl)c1F)[C@]21C(=O)Nc2cc(Cl)ccc21 [Example 154, (3′R, 4′S,5′R)-6′-chloro-4′-(2-chloro-3-fluoropyridin-4-yl)-N-[trans-3-(2-hydroxypropan-2-yl)cyclobutyl]-4,4-dimethyl-2″-oxo-1″,2″-dihydrodispiro[cyclohexane-1,2′-pyrrolidine-3′,3″-indole]-5′-carboxamide]	50 to 100 nM	100 to 500 nM
Cc1nnc([C@@H]2CC[C@@H](NC(=O)[C@@H]3NC4(CCC(C)(C)CC4)[C@@]4(C(=O)Nc5cc(Cl)ccc54)[C@H]3c3ccnc(Cl)c3F)CO2)o1 [Example 156]	1 to 50 nM	< 100 nM
CC1(C)CCC2(CC1)N[C@@H](C(=O)N[C@@H]1CC[C@@H](Cc3nnco3)OC1)[C@H](c1ccnc(Cl)c1F)[C@]21C(=O)Nc2cc(Cl)ccc21 [Example 161, (3′R, 4′S,5′R)-6″-chloro-4′-(2-chloro-3-fluoropyridin-4-yl)-4,4-dimethyl-N-[(3R,6S)-6-(1,3,4-oxadiazol-2-ylmethyl)tetrahydro-2H-pyran-3-yl]-2″-oxo-1″,2″-dihydrodispiro[cyclohexane-1,2′-pyrrolidine-3′,3″-indole]-5′-carboxamide]	50 to 100 nM	100 to 500 nM
CC1(C)CCC2(CC1)N[C@@H](C(=O)NC1CC3(C1)CC(CO)(CO)C3)[C@H](c1ccnc(Cl)c1F)[C@]21C(=O)Nc2cc(Cl)ccc21 [Example 162, (3′R, 4′S,5′R)—N-[6,6-bis(hydroxymethyl)spiro[3.3]hepta-2-yl]-6″-chloro-4′-(2-chloro-3-fluoropyridin-4-yl)-4,4-dimethyl-2′-oxo-1″,2″-dihydrodispiro[cyclohexane-1,2′-pyrrolidine-3′,3″-indole]-5′-carboxamide]	50 to 100 nM	100 to 500 nM
O=C(N[C@@H]1CC[C@@H](CO)OC1)[C@@H]1NC2(CC(CF)(CF)C2)[C@@]2(C(=O)Nc3cc(Cl)ccc32)[C@H]1c1cc(F)cc(Cl)c1 [Example 164, (3′R, 4′R, 5′R)-6″-chloro-4′-(3-chloro-5-fluorophenyl)-3,3-bis(fluoromethyl)-N-[(3R,6S)-6-(hydroxymethyl)tetrahydro-2H-pyran-3-yl]-2″-oxo-1″,2″-dihydrodispiro[cyclobutane-1,2′-pyrrolidine-3′,3″-indole]-5′-carboxamide]	100 to 500 nM	1000 to 5000 nM
CC1(C)CCC2(CC1)N[C@@H](C(=O)N[C@@H]1CC[C@@H](C(N)=O)OC1)[C@H](c1cccc(Cl)c1F)[C@]21C(=O)Nc2nc(Cl)ccc21 [Example 179, (3′R, 4′S,5′R)—N-[(3R,6S)-6-carbamoyltetrahydro-2H-pyran-3-yl]-6″-chloro-4′-(3-chloro-2-fluorophenyl)-4,4-dimethyl-2″-oxo-1″,2″-dihydrodispiro[cyclohexane-1,2′-pyrrolidine-3′,3″-pyrrolo[2,3-b]pyridine]-5′-carboxamide]	1 to 50 nM	1000 to 5000 nM
C[C@@H](O)[C@@H]1CC[C@@H](NC(=O)[C@@H]2NC3(CCC(C)(C)CC3)[C@@]3(C(=O)Nc4nc(Cl)ccc43)[C@H]2c2cccc(Cl)c2F)CO1 [Example 180, (3′R, 4′S,5′R)-6″-chloro-4′-(3-chloro-2-fluorophenyl)-N-{(3R,6S)-6-[(1R)-1-hydroxyethyl]tetrahydro-2H-pyran-3-yl}-4,4-dimethyl-2″-oxo-1″,2″-dihydrodispiro[cyclohexane-1,2′-pyrrolidine-3′,3″-pyrrolo[2,3-b]pyridine]-5′-carboxamide]	1 to 50 nM	1000 to 5000 nM
C[C@@H](O)[C@@H]1CC[C@@H](NC(=O)[C@@H]2NC3(CCC(C)(C)CC3)[C@@]3(C(=O)Nc4cc(Cl)ccc43)[C@H]2c2cccc(Cl)c2F)CO1 [Example 182, (3′R, 4′S,5′R)-6″-chloro-4′-(3-chloro-2-fluorophenyl)-N-{(3S,6S)-6-[(1R)-1-hydroxyethyl]tetrahydro-2H-pyran-3-yl}-4,4-dimethyl-2′-oxo-1″,2″-dihydrodispiro[cyclohexane-1,2′-pyrrolidine-3′,3″-indole]-5-carboxamide]	1 to 50 nM	< 100 nM
CC1(C)CCC2(CC1)N[C@@H](C(=O)N[C@H]1CC[C@H](c3nnco3)CC1)[C@H](c1cccc(Cl)c1F)[C@]21C(=O)Nc2cc(Cl)ccc21 [Example 183, (3′R, 4′S,5′R)-6′-chloro-4′-(3-chloro-2-fluorophenyl)-4,4-dimethyl-N-[trans-4-(1,3,4-oxadiazol-2-yl)cyclohexyl]-2″-oxo-1″,2″-dihydrodispiro[cyclohexane-1,2′-pyrrolidine-3′,3″-indole]-5′-carboxamide]	50 to 100 nM	100 to 500 nM
CC1(C)CCC2(CC1)N[C@@H](C(=O)N[C@@H]1CC[C@@H](C(N)=O)OC1)[C@H](c1cccc(Cl)c1F)[C@]21C(=O)Nc2cc(Cl)ncc21 [Example 185, (3′R, 4′S,5′R)—N-[(3R,6S)-6-carbamoyltetrahydro-2H-pyran-3-yl]-6″-chloro-4′-(3-chloro-2-fluorophenyl)-4,4-dimethyl-2″-oxo-1″,2″-dihydrodispiro[cyclohexane-1,2-pyrrolidine-3′,3″-pyrrolo[3,2-c]pyridine]-5′-carboxamide]	1 to 50 nM	100 to 500 nM

Continued, values first:

IC50 [1]	GI50 [2]	SMILES
1 to 50 nM	< 100 nM	CN(C)C(=O)[C@H]1CC[C@H](NC(=O)[C@@H]2NC3(CCC(C)(C)CC3)[C@@]3(C(=O)Nc4cc(Cl)ccc43)[C@H]2c2ccnc(Cl)c2F)CC1 [Example 113, (3′R, 4′S,5′R)-6″-chloro-4′-(2-chloro-3-fluoropyridin-4-yl)-N-[trans-4-(dimethylcarbamoyl)cyclohexyl]-4,4-dimethyl-2″-oxo-1″,2″-dihydrodispiro[cyclohexane-1,2′-pyrrolidine-3′,3″-indole]-5′-carboxamide]
1 to 50 nM	500 to 1000 nM	CC1(C)CCC2(CC1)N[C@@H](C(=O)N[C@H]1C[C@H](C(N)=O)C1)[C@H](c1ccnc(Cl)c1F)[C@]21C(=O)Nc2cc(Cl)ccc21 [Example 114, (3′R, 4′S,5′R)—N-(trans-3-carbamoylcyclobutyl)-6″-chloro-4′-(2-chloro-3-fluoropyridin-4-yl)-4,4-dimethyl-2″-oxo-1″,2″-dihydrodispiro[cyclohexane-1,2′-pyrrolidine-3′,3″-indole]-5′-carboxamide]
1 to 50 nM	100 to 500 nM	CN(C)C(=O)[C@H]1C[C@H](NC(=O)[C@@H]2NC3(CCC(C)(C)CC3)[C@@]3(C(=O)Nc4cc(Cl)ccc43)[C@H]2c2ccnc(Cl)c2F)C1 [Example 115, (3′R, 4′S,5′R)-6″-chloro-4′-(2-chloro-3-fluoropyridin-4-yl)-N-[trans-3-(dimethylcarbamoyl)cyclobutyl]-4,4-dimethyl-2″-oxo-1″,2″-dihydrodispiro[cyclohexane-1,2′-pyrrolidine-3′,3″-indole]-5′-carboxamide]
1 to 50 nM	< 100 nM	CCN(CC)C(=O)[C@@H]1CC[C@@H](NC(=O)[C@@H]2NC3(CCC(C)(C)CC3)[C@@]3(C(=O)Nc4cc(Cl)ccc43)[C@H]2c2ccnc(Cl)c2F)CO1 [Example 116, (3′R, 4′S,5′R)-6″-chloro-4′-(2-chloro-3-fluoropyridin-4-yl)-N-[(3R,6S)-6-(diethylcarbamoyl)tetrahydro-2H-pyran-3-yl]-4,4-dimethyl-2″-oxo-1″,2″-dihydrodispiro[cyclohexane-1,2′-pyrrolidine-3′,3″-indole]-5′-carboxamide]
1 to 50 nM	100 to 500 nM	CCN(CC)C(=O)[C@@H]1CC[C@@H](NC(=O)[C@@H]2NC3(CCC(C)(C)CC3)[C@@]3(C(=O)Nc4nc(Cl)ccc43)[C@H]2c2ccnc(Cl)c2F)CO1 [Example 117, (3′R, 4′S,5′R)-6″-chloro-4′-(2-chloro-3-fluoropyridin-4-yl)-N-[(3R,6S)-6-(diethylcarbamoyl)tetrahydro-2H-pyran-3-yl]-4,4-dimethyl-2″-oxo-1″,2″-dihydrodispiro[cyclohexane-1,2′-pyrrolidine-3′,3″-pyrrolo[2,3-b]pyridine]-5′-carboxamide]
50 to 100 nM	< 100 nM	CC1(C)CCC2(CC1)N[C@@H](C(=O)N[C@@H]1CC[C@@H](CCO)OC1)[C@H](c1ccnc(Cl)c1F)[C@]21C(=O)Nc2cc(Cl)ccc21 [Example 160, (3′R, 4′S,5′R)-6″-chloro-4′-(2-chloro-3-fluoropyridin-4-yl)-N-[(3R,6S)-6-(2-hydroxyethyl)tetrahydro-2H-pyran-3-yl]-4,4-dimethyl-2″-oxo-1″,2″-dihydrodispiro[cyclohexane-1,2′-pyrrolidine-3′,3″-indole]-5′-carboxamide]
1 to 50 nM	> 5000 nM	CC1(C)CCC2(CC1)N[C@@H](C(=O)N[C@@H]1CC[C@@H](C(=O)O)OC1)[C@H](c1ccnc(Cl)c1F)[C@]21C(=O)Nc2cc(Cl)ccc21 [Example 174, (2S,5R)-5-({[(3′B, 4′S,5′R)-6″-chloro-4′-(2-chloro-3-fluoropyridin-4-yl)-4,4-dimethyl-2″-oxo-1′″, 2″-dihydrodispiro[cyclohexane-1,2-pyrrolidine-3′,3″-indole]-5′-yl]carbonyl}amino)tetrahydro-2H-pyran-2-carboxylic acid]

From patent US12545685B2 (Daiichi Sankyo Company, Limited, priority 2011, dated 2026)
